The values that follow come from US8501812B2, “Therapeutic methods for type I diabetes” (University of Massachusetts, priority 2005, dated 2013).

The target of one data set is T1, JNK2 (Homo sapiens, UniProt P45984).
T1 construct: His6 (N)
The data set can be described thus: c-Jun phosphorylation assay with His6-JNK2 and GST-c-Jun(1-79), γ-32P ATP. Format: biochemical. As to conditions: assay consistently shows, despite variability. The protocol: For example, to 10 μL of 5-amino-anthra(9,1-cd)isothiazol-6-one in 20% DMSO/80% dilution buffer containing of 20 mM HEPES (pH 7.6), 0.1 mM EDTA, 2.5 mM magnesium chloride, 0.004% Triton×100, 2 μg/mL leupeptin, 20 mM β-glycerolphosphate, 0.1 mM sodium vanadate, and 2 mM DTT in water is added 30 μL of 50-200 ng His6-JNK2 in the same dilution buffer. The mixture is pre-incubated for 30 minutes at room temperature. Sixty μL of 10 μg GST-c-Jun(1-79) in assay buffer consisting of 20 mM HEPES (pH 7.6), 50 mM sodium chloride, 0.1 mM EDTA, 24 mM magnesium chloride, 1 mM DTT, 25 mM PNPP, 0.05% Triton×100, 11 μM ATP, and 0.5 μCi γ-32P ATP in water is added and the reaction is allowed to proceed for 1 hour at room temperature. The c-Jun phosphorylation is terminated by addition of 150 μL of 12.5% trichloroacetic acid. After 30 minutes, the precipitate is harvested onto a filter plate, diluted with 50 μL of the scintillation fluid and quantified by a counter. The IC50 values are calculated as the concentration of 5-amino-anthra(9,1-cd)isothiazol-6-one at which the c-Jun phosphorylation is reduced to 50% of the control value. Compounds that inhibit JNK2 preferably have an IC50 value ranging 0.01-10 μM in this assay. 5-Amino-anthra(9,1-cd)isothiazol-6-one has an IC50 according to this assay of 1 μM for JNK2 and 400 nM for JNK3.

Data set [1] is described as follows: solubility in aqueous media. Format: physicochemical.

T1 sequence (P45984 whole entry): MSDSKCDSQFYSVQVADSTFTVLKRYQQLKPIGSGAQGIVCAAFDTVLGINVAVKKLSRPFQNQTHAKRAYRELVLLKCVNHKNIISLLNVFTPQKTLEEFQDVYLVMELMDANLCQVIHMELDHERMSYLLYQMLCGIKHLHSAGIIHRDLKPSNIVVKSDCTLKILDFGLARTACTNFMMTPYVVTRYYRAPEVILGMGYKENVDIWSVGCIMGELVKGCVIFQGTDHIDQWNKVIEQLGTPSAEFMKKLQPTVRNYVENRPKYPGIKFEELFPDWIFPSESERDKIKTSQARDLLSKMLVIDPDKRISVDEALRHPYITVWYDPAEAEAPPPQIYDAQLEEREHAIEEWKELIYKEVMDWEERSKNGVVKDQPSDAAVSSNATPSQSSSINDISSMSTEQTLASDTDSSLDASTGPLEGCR

In the case of `Nc1ccc2snc3c2c1C(=O)c1ccccc1-3` [5-amino-anthra(9,1-cd)isothiazol-6-one], the “selectivity of JNK2 inhibition” value on JNK2 is on record as “selectively inhibits JNK2”. Further, in data set [1], the “solubility in aqueous media” value is reported as “limited solubility”.
